Test results reported in ChEMBL document CHEMBL1137300, “Identification of the brominated flame retardant 1,2-dibromo-4-(1,2-dibromoethyl)cyclohexane as an androgen agonist” (J Med Chem, 2006).

Experiments:
[1] = molecular target: T1, Androgen receptor (Rattus norvegicus, UniProt P15207); assay: Displacement of androgen fluormone from rat androgen receptor
T1 sequence (P15207 whole entry): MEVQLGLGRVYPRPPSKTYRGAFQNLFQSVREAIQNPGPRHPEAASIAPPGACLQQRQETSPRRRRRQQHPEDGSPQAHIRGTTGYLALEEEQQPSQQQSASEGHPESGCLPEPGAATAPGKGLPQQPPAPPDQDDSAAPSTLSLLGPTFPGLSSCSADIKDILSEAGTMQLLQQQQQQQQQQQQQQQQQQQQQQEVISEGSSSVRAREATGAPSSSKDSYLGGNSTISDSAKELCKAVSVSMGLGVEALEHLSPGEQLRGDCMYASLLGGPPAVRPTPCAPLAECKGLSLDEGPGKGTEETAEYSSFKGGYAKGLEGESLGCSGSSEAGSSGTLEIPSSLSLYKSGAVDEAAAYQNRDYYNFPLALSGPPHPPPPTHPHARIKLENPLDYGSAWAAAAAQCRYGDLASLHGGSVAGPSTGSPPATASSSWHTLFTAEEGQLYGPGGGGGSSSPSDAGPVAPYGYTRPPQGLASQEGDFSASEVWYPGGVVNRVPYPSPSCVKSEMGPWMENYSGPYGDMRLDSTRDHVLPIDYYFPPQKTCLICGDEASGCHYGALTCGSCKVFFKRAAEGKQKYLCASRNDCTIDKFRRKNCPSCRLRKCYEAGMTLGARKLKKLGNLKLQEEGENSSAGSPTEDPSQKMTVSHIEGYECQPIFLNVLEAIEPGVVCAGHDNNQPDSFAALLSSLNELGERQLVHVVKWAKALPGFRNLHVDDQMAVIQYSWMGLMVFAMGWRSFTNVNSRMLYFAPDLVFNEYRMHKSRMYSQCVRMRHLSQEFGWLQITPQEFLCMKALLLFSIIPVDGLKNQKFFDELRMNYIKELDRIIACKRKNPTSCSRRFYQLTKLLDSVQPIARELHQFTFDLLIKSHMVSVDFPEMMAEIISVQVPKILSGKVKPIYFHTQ

[2] = molecular target: T2, Androgen receptor (Homo sapiens, UniProt P10275); assay: Activity against human androgen receptor expressed in HepG2 cells assessed as luciferase reporter gene activation
T2 sequence (P10275 whole entry): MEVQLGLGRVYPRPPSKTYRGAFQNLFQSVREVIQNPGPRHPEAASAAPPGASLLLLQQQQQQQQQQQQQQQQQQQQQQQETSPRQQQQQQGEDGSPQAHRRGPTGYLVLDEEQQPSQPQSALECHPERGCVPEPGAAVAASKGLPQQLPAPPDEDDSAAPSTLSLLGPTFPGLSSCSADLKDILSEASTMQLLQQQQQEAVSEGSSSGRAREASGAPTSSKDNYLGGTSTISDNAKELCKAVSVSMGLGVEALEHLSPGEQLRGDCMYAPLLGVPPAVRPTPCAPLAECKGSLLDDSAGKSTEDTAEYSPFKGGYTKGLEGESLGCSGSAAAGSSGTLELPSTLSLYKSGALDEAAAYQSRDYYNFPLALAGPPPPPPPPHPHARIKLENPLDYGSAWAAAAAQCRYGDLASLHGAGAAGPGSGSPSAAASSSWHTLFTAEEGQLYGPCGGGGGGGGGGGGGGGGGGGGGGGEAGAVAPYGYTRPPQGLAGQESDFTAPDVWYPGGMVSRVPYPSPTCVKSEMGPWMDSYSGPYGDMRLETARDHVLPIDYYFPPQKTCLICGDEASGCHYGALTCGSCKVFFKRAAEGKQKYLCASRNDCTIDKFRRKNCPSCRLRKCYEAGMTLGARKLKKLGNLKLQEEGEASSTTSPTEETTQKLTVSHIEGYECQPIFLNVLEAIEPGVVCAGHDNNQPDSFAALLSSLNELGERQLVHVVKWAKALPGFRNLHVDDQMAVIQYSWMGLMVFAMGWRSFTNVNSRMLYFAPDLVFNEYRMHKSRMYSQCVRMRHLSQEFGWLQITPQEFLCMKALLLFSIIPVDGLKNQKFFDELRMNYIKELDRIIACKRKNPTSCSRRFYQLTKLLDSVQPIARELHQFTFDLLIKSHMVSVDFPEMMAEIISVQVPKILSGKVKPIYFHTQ

## BrCC(Br)C1CCC(Br)C(Br)C1 (configuration not stated)
[1]
  IC50: 0.163 µM
[2]
  IC50: 0.0427 µM
